From patent US9662372B2 (priority 2013, dated 2017)
Several values for one entry are separate records, joined by “and”; a condition that tells them apart may be missing. Equal entries are not always repeated. Where a SMILES comes first, the peptide text is derived from it. Where no end group is shown, it is not given here. [ ]: non-standard residue; d: D form. βAla = NCCC(=O)O

Tests used:
C. difficile ATCC 9689 [1] = type: cell-based, Clostridium difficile
C. difficile ATCC 9689 [2] = assay: Bacterial mass in wells of PM panels (OD 750 nm); type: cell-based, Clostridium difficile; settings: OD difference with vs without C. difficile, 72 h
[3] = nitrogen source (PM03/06/07/08)
[4] = phosphorus/sulfur source panel PM04

| Compound | Toxin (C. difficile ATCC 9689 [1]) | C. difficile Mass (C. difficile ATCC 9689 [2]; [3]) | also measured |
| --- | --- | --- | --- |
| CC(C)C[C@H](NC(=O)[C@@H](N)CC(C)C)C(=O)O [Leu-Leu] | <0.122 ng/mL | 0.0530 OD (750 nm) | Effect on toxin production (in words) (C. difficile ATCC 9689 [1]): toxin production inhibitor |
| Gly-Gly-Leu | 215 ng/mL | 0.0305 OD (750 nm) |  |
| Trp-Tyr | 134 ng/mL | 0.0451 OD (750 nm) |  |
| Arg-Ala | 10080 ng/mL | 0.0456 OD (750 nm) |  |
| Val-Tyr-Val | 296 ng/mL | 0.0382 OD (750 nm) |  |
| Gly-Asp | 1507 ng/mL |  | C. difficile Mass (C. difficile ATCC 9689 [2]; carbon source (PM01/PM02)): 0.1004 OD (750 nm) |
| NCCCCCC(=O)O [ε-Amino-N-Caproic acid] | 3389 ng/mL | 0.0366 OD (750 nm) |  |
| CCC(C)C(NC(=O)C(N)CC(C)C)C(=O)O (stereo not drawn) [Leu-Ile] (H-Leu-Ile-OH; configuration not given here) | <0.122 ng/mL | 0.0523 OD (750 nm) | Effect on toxin production (in words) (C. difficile ATCC 9689 [1]): toxin production inhibitor |
| Gly-D-Asp | 1537 ng/mL | 0.0467 OD (750 nm) |  |
| O=NO [Nitrite] | 383 ng/mL | 0.0333 OD (750 nm) |  |
| Val-Glu | 178 ng/mL | 0.0481 OD (750 nm) |  |
| Trp-Trp | 4104 ng/mL | 0.055 OD (750 nm) |  |
| CSCCC(NC(=O)C(N)CC(C)C)C(=O)O (stereo not drawn) [Leu-Met] (H-Leu-Met-OH; configuration not given here) | <0.122 ng/mL | 0.0501 OD (750 nm) | Effect on toxin production (in words) (C. difficile ATCC 9689 [1]): toxin production inhibitor |
| Arg-Phe | 6541 ng/mL | 0.0467 OD (750 nm) |  |
| Lys-Trp | 5277 ng/mL | 0.006 OD (750 nm) |  |
| O=P1([O-])OP(=O)([O-])OP(=O)([O-])O1.[Na+].[Na+].[Na+] [Trimetaphosphate] | <0.122 ng/mL |  | C. difficile Mass (C. difficile ATCC 9689 [2]; [4]): 0.0493 OD (750 nm) |
| Gly-Trp | 3632 ng/mL | 0.0431 OD (750 nm) |  |
| Arg-Glu | 4059 ng/mL | 0.0404 OD (750 nm) |  |
| O=P(O)(O)OP(=O)(O)O [Pyrophosphate] | <0.122 ng/mL |  | C. difficile Mass (C. difficile ATCC 9689 [2]; [4]): 0.0075 OD (750 nm) |
| Lys-Gly | 1950 ng/mL | 0.047 OD (750 nm) |  |
| His-Leu | 376 ng/mL | 0.0495 OD (750 nm) |  |
| Gly-D-Thr | 157 ng/mL | 0.0549 OD (750 nm) |  |

| Compound | Toxin (C. difficile ATCC 9689 [1]) | C. difficile Mass (C. difficile ATCC 9689 [2]; [3]) | also measured |
| --- | --- | --- | --- |
| [dA]-Gly-Gly | 515 ng/mL | 0.0538 OD (750 nm) |  |
| CC(O)C(N)=O (racemic) [D,L-Lactamide] | 2859 ng/mL | 0.04 OD (750 nm) |  |
| Ile-Arg | 122 ng/mL | 0.0442 OD (750 nm) |  |
| Val-Pro | 183 ng/mL | 0.0425 OD (750 nm) |  |
| Lys-Arg | 5536 ng/mL | 0.0502 OD (750 nm) |  |
| Lys-Phe | <0.122 ng/mL | 0.0533 OD (750 nm) |  |
| Gly-Pro | 3798 ng/mL | 0.0414 OD (750 nm) |  |
| Pro-Hyp | 7523 ng/mL | 0.045 OD (750 nm) |  |
| His-Lys | 6993 ng/mL | 0.0453 OD (750 nm) |  |
| NCCCCC(=O)O [δ-Amino-N-Valeric acid] | 435 ng/mL | 0.0424 OD (750 nm) |  |
| Gly-Glu | 366 ng/mL and 184 ng/mL | 0.0472 OD (750 nm) | C. difficile Mass (C. difficile ATCC 9689 [2]; carbon source (PM01/PM02)): 0.0411 OD (750 nm) |
| Leu-Asn | 381 ng/mL | 0.0482 OD (750 nm) |  |
| Trp-Ala | 415 ng/mL | 0.0489 OD (750 nm) |  |
| NC(=O)CCCCC1CCSS1 (racemic) [D,L-Lipoamide] | <0.122 ng/mL |  | C. difficile Mass (C. difficile ATCC 9689 [2]; [4]): 0.0265 OD (750 nm) |
| Arg-Ser | 7608 ng/mL | 0.0448 OD (750 nm) |  |
| [βAla]-His | 8265 ng/mL | 0.0473 OD (750 nm) |  |
| Val-Ser | <0.122 ng/mL | 0.0455 OD (750 nm) |  |
| 2,3-Butanone | <0.122 ng/mL |  | C. difficile Mass (C. difficile ATCC 9689 [2]; carbon source (PM01/PM02)): 0.0572 OD (750 nm) |
| NCCO [2-Aminoethanol] | 173 ng/mL |  | C. difficile Mass (C. difficile ATCC 9689 [2]; carbon source (PM01/PM02)): 0.0853 OD (750 nm) |
| Ser-Leu | 187 ng/mL | 0.0404 OD (750 nm) |  |
| Gly-Phe-Phe | 298 ng/mL | 0.2751 OD (750 nm) |  |
| Trp-Arg | 6468 ng/mL | 0.0628 OD (750 nm) |  |

| Compound | Toxin (C. difficile ATCC 9689 [1]) | C. difficile Mass (C. difficile ATCC 9689 [2]; [3]) | also measured |
| --- | --- | --- | --- |
| Tyr-Phe | <0.122 ng/mL | 0.0559 OD (750 nm) |  |
| CC(C)CC(N)C(=O)NC(Cc1ccccc1)C(=O)O (stereo not drawn) [Leu-Phe] (H-Leu-Phe-OH; configuration not given here) | <0.122 ng/mL | 0.0538 OD (750 nm) | Effect on toxin production (in words) (C. difficile ATCC 9689 [1]): toxin production inhibitor |
| His-Trp | 178 ng/mL | 0.0442 OD (750 nm) |  |
| Lys-Glu | 271 ng/mL | 0.0425 OD (750 nm) |  |
| Trp-Val | 184 ng/mL | 0.0276 OD (750 nm) |  |
| Tyr-Tyr | 174 ng/mL | 0.0415 OD (750 nm) |  |
| Thr-Pro | 4772 ng/mL | 0.0355 OD (750 nm) |  |
| Leu-Ser | 116 ng/mL | 0.037 OD (750 nm) |  |
| γ-D-Glu-Gly | 10122 ng/mL | 0.0519 OD (750 nm) |  |
| Gly-Arg | 352 ng/mL | 0.0403 OD (750 nm) |  |
| CS(=O)(=O)CC[C@H](N)C(=O)O [L-Methionine Sulfone] | <0.122 ng/mL |  | C. difficile Mass (C. difficile ATCC 9689 [2]; [4]): 0.0446 OD (750 nm) |
| Ala-Gly | 2130 ng/mL |  | C. difficile Mass (C. difficile ATCC 9689 [2]; carbon source (PM01/PM02)): 0.0934 OD (750 nm) |
| Lys-Ser | 5105 ng/mL | 0.0426 OD (750 nm) |  |
| Arg-Trp | 8423 ng/mL | 0.0499 OD (750 nm) |  |
| His-Pro | 8568 ng/mL | 0.0481 OD (750 nm) |  |
| Gly-Gly-Gly | 1811 ng/mL | 0.0456 OD (750 nm) |  |
| CC(C)CC(N)C(=O)NC(CC(C)C)C(=O)NC(CC(C)C)C(=O)O (stereo not drawn) [Leu-Leu-Leu] (H-Leu-Leu-Leu-OH; configuration not given here) | <0.122 ng/mL | 0.0463 OD (750 nm) | Effect on toxin production (in words) (C. difficile ATCC 9689 [1]): toxin production inhibitor |
| OP(O)(O)=S [Thiophosphate] | <0.122 ng/mL |  | C. difficile Mass (C. difficile ATCC 9689 [2]; [4]): 0.0373 OD (750 nm) |
| Nc1ncnc2nc[nH]c12 [Adenine] |  | 0.031 OD (750 nm) | Toxin induction (rank, in words) (C. difficile ATCC 9689 [1]): strongest toxin inducer |
| Lys-Asp | 335 ng/mL | 0.0525 OD (750 nm) |  |
| Gly-D-Ser | 297 ng/mL | 0.0543 OD (750 nm) |  |
| NO [Hydroxylamine] | 334 ng/mL | 0.0228 OD (750 nm) |  |
